Laboratory results: ChEMBL document CHEMBL1201861, “Genomics of Drug Sensitity in Cancer screening data, Wellcome Trust Sanger Institute”

Assays:
Test in all cases: cells
SCC-9 = format: functional, cell-based; conditions: Homo sapiens;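 also: Read-out is a cell viability assay, with values giving inhibition of cell growth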
Description: SANGER: Inhibition of human SCC-9 cell growth in a cell viability assay.

NCI-H596 = format: functional, cell-based; conditions: Homo sapiens;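 also: growth inhibition of NCI-H596 cells, read out with a cell viability assay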
Description: SANGER: Inhibition of human NCI-H596 cell growth in a cell viability assay.

HC-1 = format: functional, cell-based, Homo sapiens; conditions: Homo sapiens, HC-1;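 also: growth inhibition of HC-1 cells measured by a cell viability assay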
Description: SANGER: Inhibition of human HC-1 cell growth in a cell viability assay.

M059J = format: functional, cell-based; conditions: Homo sapiens;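 also: growth inhibition of M059J cells, read out with a cell viability assay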
Description: SANGER: Inhibition of human M059J cell growth in a cell viability assay.

MOLT-13 = format: functional, cell-based; conditions: Homo sapiens;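 also: IC50 for suppression of MOLT-13 cell growth, read out with a cell viability assay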
Description: SANGER: Inhibition of human MOLT-13 cell growth in a cell viability assay.

EGI-1 = format: functional, cell-based; conditions: Homo sapiens;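 also: cell viability readout used to gauge growth inhibition of EGI-1 cells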
Description: SANGER: Inhibition of human EGI-1 cell growth in a cell viability assay.

IGR-1 = format: functional, cell-based; conditions: Homo sapiens;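 also: growth inhibition of human IGR-1 cells, read out with a cell viability assay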
Description: SANGER: Inhibition of human IGR-1 cell growth in a cell viability assay.

J82 = format: functional, cell-based; conditions: Homo sapiens;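 also: growth inhibition of J82 cells, read out with a cell viability assay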
Description: SANGER: Inhibition of human J82 cell growth in a cell viability assay.

KYSE-510 = format: functional, cell-based; conditions: Homo sapiens;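 also: cell viability readout used to measure how strongly growth of the cell line is suppressed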
Description: SANGER: Inhibition of human KYSE-510 cell growth in a cell viability assay.

MEL-HO = format: functional, cell-based; conditions: Homo sapiens
Description: SANGER: Inhibition of human MEL-HO cell growth in a cell viability assay.

YKG-1 = format: functional, cell-based; conditions: Homo sapiens;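 also: cell growth inhibition, read out with a viability assay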
Description: SANGER: Inhibition of human YKG-1 cell growth in a cell viability assay.

CAPAN-1 = format: functional, cell-based; conditions: Homo sapiens;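 also: growth suppression of CAPAN-1 cells, read out by a cell viability assay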
Description: SANGER: Inhibition of human CAPAN-1 cell growth in a cell viability assay.

RERF-LC-MS = format: functional, cell-based; conditions: Homo sapiens;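 also: growth inhibition of human RERF-LC-MS cells, read out by a cell viability assay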
Description: SANGER: Inhibition of human RERF-LC-MS cell growth in a cell viability assay.

KYSE-140 = format: functional, cell-based; conditions: Homo sapiens;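 also: cell viability assay measuring growth inhibition in human KYSE-140 cells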
Description: SANGER: Inhibition of human KYSE-140 cell growth in a cell viability assay.

MG-63 = format: functional, cell-based; conditions: Homo sapiens;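 also: growth inhibition of human MG-63 cells, read out with a cell viability assay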
Description: SANGER: Inhibition of human MG-63 cell growth in a cell viability assay.

GP5d = format: functional, cell-based; conditions: Homo sapiens;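 also: growth inhibition of human GP5d cells, read out with a cell viability assay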
Description: SANGER: Inhibition of human GP5d cell growth in a cell viability assay.

NCI-H1437 = format: functional, cell-based; conditions: Homo sapiens;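 also: growth inhibition of human NCI-H1437 cells, read out by a cell viability assay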
Description: SANGER: Inhibition of human NCI-H1437 cell growth in a cell viability assay.

FaDu = format: functional, cell-based; conditions: Homo sapiens;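 also: cell viability readout of growth inhibition in FaDu cells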
Description: SANGER: Inhibition of human FADU cell growth in a cell viability assay.

G-401 = format: functional, cell-based; conditions: Homo sapiens
Description: SANGER: Inhibition of human G-401 cell growth in a cell viability assay.

Kasumi 1 = format: functional, cell-based, Homo sapiens; conditions: Homo sapiens, Kasumi 1;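 also: growth inhibition of human Kasumi-1 cells, read out by a cell viability assay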
Description: SANGER: Inhibition of human KASUMI-1 cell growth in a cell viability assay.

HCC70 = format: functional, cell-based; conditions: Homo sapiens;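 also: cell viability assay measuring how strongly the compound suppresses proliferation of HCC70 cells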
Description: SANGER: Inhibition of human HCC70 cell growth in a cell viability assay.

FTC-133 = format: functional, cell-based; conditions: Homo sapiens
Hs-578T = format: functional, cell-based; conditions: Homo sapiens
Description: SANGER: Inhibition of human Hs-578-T cell growth in a cell viability assay.

CAL-33 = format: functional, cell-based; conditions: Homo sapiens;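 also: growth inhibition of CAL-33 cells, read out with a cell viability assay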
Description: SANGER: Inhibition of human CAL-33 cell growth in a cell viability assay.

CAL-120 = format: functional, cell-based; conditions: Homo sapiens;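 also: cell growth inhibition, read out as cell viability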
Description: SANGER: Inhibition of human CAL-120 cell growth in a cell viability assay.

RCM-1 = format: functional, cell-based; conditions: Homo sapiens;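 also: growth inhibition of the RCM-1 line, determined with a cell viability readout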
Description: SANGER: Inhibition of human RCM-1 cell growth in a cell viability assay.

HCC1395 = format: functional, cell-based; conditions: Homo sapiens;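 also: growth inhibition of HCC1395 cells, read out by a cell viability assay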
Description: SANGER: Inhibition of human HCC1395 cell growth in a cell viability assay.

A2780 = format: functional, cell-based; conditions: Homo sapiens;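 also: growth inhibition of A2780 cells, read out with a cell viability assay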
Description: SANGER: Inhibition of human A2780 cell growth in a cell viability assay.

Ca-Ski = format: functional, cell-based; conditions: Homo sapiens;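 also: cell viability assay measuring inhibition of Ca-Ski cell growth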
Description: SANGER: Inhibition of human Ca-Ski cell growth in a cell viability assay.

TYK-nu = format: functional, cell-based; conditions: Homo sapiens;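 also: growth inhibition of human TYK-nu cells, read out by a cell viability assay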
Description: SANGER: Inhibition of human TYK-nu cell growth in a cell viability assay.

MDA-MB-361 = format: functional, cell-based; conditions: Homo sapiens
MC-IXC = format: functional, cell-based; conditions: Homo sapiens;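 also: growth inhibition of MC-IXC cells, read out with a cell viability assay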
Description: SANGER: Inhibition of human MC-IXC cell growth in a cell viability assay.

BXPC-3 = format: functional, cell-based; conditions: Homo sapiens;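 also: growth inhibition of human BxPC-3 cells, read out by a cell viability assay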
Description: SANGER: Inhibition of human BxPC-3 cell growth in a cell viability assay.

SK-OV-3 = format: functional, cell-based; conditions: Homo sapiens;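 also: growth inhibition of SK-OV-3 human cells, read out with a cell viability assay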
Description: SANGER: Inhibition of human SK-OV-3 cell growth in a cell viability assay.

MDA-MB-453 = format: functional, cell-based; conditions: Homo sapiens
Description: SANGER: Inhibition of human MDA-MB-453 cell growth in a cell viability assay.

HO-1-N-1 = format: functional, cell-based; conditions: Homo sapiens;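 also: growth inhibition of human HO-1-N-1 cells, read out with a cell viability assay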
Description: SANGER: Inhibition of human HO-1-N-1 cell growth in a cell viability assay.

HPAF-II = format: functional, cell-based; conditions: Homo sapiens;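 also: growth inhibition of HPAF-II cells, read out with a cell viability assay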
Description: SANGER: Inhibition of human HPAF-II cell growth in a cell viability assay.

NCI-H441 = format: functional, cell-based; conditions: Homo sapiens;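 also: growth inhibition of NCI-H441 cells, read out with a cell viability assay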
Description: SANGER: Inhibition of human NCI-H441 cell growth in a cell viability assay.

LK-2 = format: functional, cell-based; conditions: Homo sapiens;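 also: growth inhibition of LK-2 cells, read out with a viability assay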
Description: SANGER: Inhibition of human LK-2 cell growth in a cell viability assay.

HT55 = format: functional, cell-based; conditions: Homo sapiens;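 also: cell viability readout measuring growth inhibition of human HT55 cells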
Description: SANGER: Inhibition of human HT55 cell growth in a cell viability assay.

KYSE-150 cell line = format: functional, cell-based; conditions: Homo sapiens;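 also: growth inhibition of human KYSE-150 cells, read out with a cell viability assay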
Description: SANGER: Inhibition of human KYSE-150 cell growth in a cell viability assay.

P12-Ichikawa = format: functional, cell-based; conditions: Homo sapiens
RPMI-2650 = format: functional, cell-based; conditions: Homo sapiens
Description: SANGER: Inhibition of human RPMI-2650 cell growth in a cell viability assay.

D-336MG = format: functional, cell-based, Homo sapiens; conditions: Homo sapiens, D-336MG
Description: SANGER: Inhibition of human D-336MG cell growth in a cell viability assay.

DOK = format: functional, cell-based; conditions: Homo sapiens;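 also: cell viability assay read-out, values reflect inhibition of cell growth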
Description: SANGER: Inhibition of human DOK cell growth in a cell viability assay.

NC(=O)Nc1cc(-c2cccc(F)c2)sc1C(=O)N[C@H]1CCCNC1 [AZD-7762]
IC50 (SCC-9): 1990 nM | IC50 (NCI-H596): > 2000 nM | IC50 (HC-1): 521 nM | IC50 (M059J): 1070 nM | IC50 (MOLT-13): 463 nM | IC50 (EGI-1): 1800 nM | IC50 (IGR-1): > 2000 nM | IC50 (J82): 805 nM | IC50 (KYSE-510): 1580 nM | IC50 (MEL-HO): 979 nM | IC50 (YKG-1): 1580 nM | IC50 (CAPAN-1): > 2000 nM | IC50 (RERF-LC-MS): 677 nM | IC50 (KYSE-140): 130 nM | IC50 (MG-63): > 2000 nM | IC50 (GP5d): 412 nM | IC50 (NCI-H1437): > 2000 nM | IC50 (FaDu): 412 nM | IC50 (G-401): > 2000 nM | IC50 (Kasumi 1): < 7.81 nM | IC50 (HCC70): 307 nM | IC50 (FTC-133): 303 nM | IC50 (Hs-578T): 453 nM | IC50 (CAL-33): 984 nM | IC50 (CAL-120): > 2000 nM | IC50 (RCM-1): 993 nM | IC50 (HCC1395): 271 nM | IC50 (A2780): 432 nM | IC50 (Ca-Ski): 388 nM | IC50 (TYK-nu): 281 nM | IC50 (MDA-MB-361): 299 nM | IC50 (MC-IXC): 128 nM | IC50 (BXPC-3): 1310 nM | IC50 (SK-OV-3): > 2000 nM | IC50 (MDA-MB-453): > 2000 nM | IC50 (HO-1-N-1): 1140 nM | IC50 (HPAF-II): 970 nM | IC50 (NCI-H441): > 2000 nM | IC50 (LK-2): 1460 nM | IC50 (HT55): 1610 nM | IC50 (KYSE-150 cell line): > 2000 nM | IC50 (P12-Ichikawa): 43.2 nM | IC50 (RPMI-2650): > 2000 nM | IC50 (D-336MG): 421 nM | IC50 (DOK): > 2000 nM

NC(=O)c1ccc(N(C(N)=O)c2c(F)cccc2F)nc1-c1ccc(F)cc1F [VX-702]
IC50 (SCC-9): > 2000 nM | IC50 (NCI-H596): > 2000 nM | IC50 (HC-1): > 2000 nM | IC50 (M059J): > 2000 nM | IC50 (MOLT-13): 160 nM | IC50 (EGI-1): > 2000 nM | IC50 (IGR-1): > 2000 nM | IC50 (J82): > 2000 nM | IC50 (KYSE-510): > 2000 nM | IC50 (MEL-HO): > 2000 nM | IC50 (YKG-1): > 2000 nM | IC50 (CAPAN-1): > 2000 nM | IC50 (RERF-LC-MS): > 2000 nM | IC50 (KYSE-140): > 2000 nM | IC50 (MG-63): > 2000 nM | IC50 (GP5d): > 2000 nM | IC50 (NCI-H1437): > 2000 nM | IC50 (FaDu): > 2000 nM | IC50 (G-401): > 2000 nM | IC50 (HCC70): > 2000 nM | IC50 (FTC-133): > 2000 nM | IC50 (Hs-578T): > 2000 nM | IC50 (CAL-33): > 2000 nM | IC50 (CAL-120): > 2000 nM | IC50 (RCM-1): > 2000 nM | IC50 (HCC1395): > 2000 nM | IC50 (A2780): > 2000 nM | IC50 (Ca-Ski): > 2000 nM | IC50 (TYK-nu): > 2000 nM | IC50 (MDA-MB-361): > 2000 nM | IC50 (MC-IXC): > 2000 nM | IC50 (BXPC-3): > 2000 nM | IC50 (SK-OV-3): > 2000 nM | IC50 (MDA-MB-453): > 2000 nM | IC50 (HO-1-N-1): > 2000 nM | IC50 (HPAF-II): > 2000 nM | IC50 (NCI-H441): > 2000 nM | IC50 (LK-2): > 2000 nM | IC50 (HT55): > 2000 nM | IC50 (KYSE-150 cell line): > 2000 nM | IC50 (P12-Ichikawa): > 2000 nM | IC50 (RPMI-2650): > 2000 nM | IC50 (D-336MG): > 2000 nM | IC50 (DOK): > 2000 nM
